Reference: patent US20050080113A1, “Medicinal compositions” (priority 2001, published 2005)

melting point [°C] | SMILES
261 to 262 | Cc1cc(-c2sc(NC(=O)c3cccnc3)nc2-c2ccc(F)cc2)ccn1 [H 42-7, N-[4 (4 fluorophenyl)-5-(2 methyl-4 pyridyl)-1,3 thiazol-2 yl]nicotinamide]
147 to 148 | Cc1cccc(-c2nc(N(C)C(=O)c3cccnc3)sc2-c2ccnc(NC3CCCCC3)c2)c1 [H 42-8, N-[5 (2 cyclohexylamino-4-pyridyl)-4 (3 methylphenyl)-1,3 thiazol-2 yl]-N-methylnicotinamide]
148 to 149 | Cc1cccc(-c2nc(N(C)C(=O)c3cccnc3)sc2-c2ccnc(NC3CCCC3)c2)c1 [H 42-9, N-[5 (2 cyclopentylamino-4 pyridyl)-4 (3 methylphenyl)-1,3 thiazol-2 yl]N-methylnicotinamide]
228 to 230 | Cc1cccc(-c2nc(NC(=O)c3ccc(Cl)nc3)sc2-c2ccnc(C)c2)c1 [H 43, 6 chloro-N-[4 (3-methylphenyl)-5 (2 methyl-4 pyridyl)-1,3 thiazol-2-yl]nicotinamide]
255 to 256 | Cc1cccc(-c2nc(NC(=O)c3ccc(Cl)nc3)sc2-c2ccnc(NC3CCCCC3)c2)c1 [H 44-1, 6 chloro-N-[5 (2-cyclohexylamino-4 pyridyl)-4 (3 methylphenyl)-1,3 thiazol-2-yl]nicotinamide]
211 to 212 | Cc1cccc(-c2nc(NC(=O)c3ccc(Cl)nc3)sc2-c2ccnc(NC3CCCC3)c2)c1 [H 44-2, 6 chloro-N-[5 (2-cyclopentylamino-4 pyridyl)-4 (3 methylphenyl)-1,3 thiazol-2-yl]nicotinamide]
171 to 172 | Cc1cccc(-c2nc(N(C)C(=O)c3ccc(Cl)nc3)sc2-c2ccnc(NC3CCCCC3)c2)c1 [H 44-4, 6 chloro-N-[5 (2-cyclohexylamino-4 pyridyl)-4 (3 methylphenyl)-1,3 thiazol-2-yl]-N-methylnicotinamide]
233 to 234 | Cc1cccc(-c2nc(NC(=O)c3ccc(C)nc3)sc2-c2ccnc(C)c2)c1 [H 45, 6 methyl-N-[4 (3-methylphenyl)-5 (2 methyl-4 pyridyl)-1,3 thiazol-2-yl]nicotinamide]
242 to 243 | Cc1cccc(-c2nc(NC(=O)c3ccc(C)nc3)sc2-c2ccnc(NC3CCCCC3)c2)c1 [H 46-1, N-[5 (2 cyclohexylamino-4-pyridyl)-4 (3 methylphenyl)-1,3 thiazol-2 yl]-6-methylnicotinamide]
213 to 214 | Cc1cccc(-c2nc(NC(=O)c3ccc(C)nc3)sc2-c2ccnc(NC3CCCC3)c2)c1 [H 46-2, N-[5 (2 cyclopentylamino-4 pyridyl)-4 (3 methylphenyl)-1,3 thiazol-2 yl]-6-methylnicotinamide]
224 to 226 | COc1ccc(C(=O)Nc2nc(-c3cccc(C)c3)c(-c3ccnc(C)c3)s2)cn1 [H 47, 6 methoxy-N-[4 (3-methylphenyl)-5 (2 methyl-4 pyridyl)-1,3 thiazol-2-yl]nicotinamide]
191 to 192 | COc1ccc(C(=O)Nc2nc(-c3cccc(C)c3)c(-c3ccnc(NC4CCCCC4)c3)s2)cn1 [H 48-1, N-[5 (2 cyclohexylamino-4-pyridyl)-4 (3 methylphenyl)-1,3 thiazol-2 yl]-6-methoxynicotinamide]
219 to 221 | COc1ccc(C(=O)Nc2nc(-c3cccc(C)c3)c(-c3ccnc(NC4CCCC4)c3)s2)cn1 [H 48-2, N-[5 (2 cyclopentylamino-4 pyridyl)-4 (3 methylphenyl)-1,3-thiazol-2 yl]-6-methoxynicotinamide]
242 to 244 | COc1ccc(C(=O)Nc2nc(-c3cc(C)cc(C)c3)c(-c3ccnc(C)c3)s2)cn1 [H 48-3, N-[4-(3,5-dimethylphenyl)-5-(2-methyl-4-pyridyl)-1,3-thiazol-2-yl]-6-methoxynicotinamide]
169 to 170 | COc1ncccc1C(=O)Nc1nc(-c2cccc(C)c2)c(-c2ccnc(C)c2)s1 [H 49, 2 methoxy-N-[4 (3-methylphenyl)-5 (2 methyl-4 pyridyl)-1,3 thiazol-2-yl]nicotinamide]
247 to 250 | COc1ccc(-c2nc(NC(C)=O)sc2-c2ccnc(N)c2)cc1 [H 50, N-[5 (2 amino-4 pyridyl)-4-(4 methoxyphenyl)-1,3 thiazol-2 yl]acetamide]
219 to 222 | COc1ccc(-c2nc(NC(=O)c3ccccc3)sc2-c2ccnc(N)c2)cc1 [H 51, N-[5 (2 amino-4 pyridyl)-4-(4 methoxyphenyl)-1,3 thiazol-2 yl]benzamide]
173 to 174 | Cc1cccc(-c2sc(NC(=O)Nc3ccccc3)nc2-c2cc(C)nc(C)c2)c1 [H 52, N-[4 (2,6 dimethyl-4 pyridyl)-5 (3 methylphenyl)-1,3 thiazol-2 yl]-N′-phenylurea]
219 to 222 | Cc1cc(C)cc(-c2nc(NC(=O)Nc3ccccc3)sc2-c2cc(C)nc(C)c2)c1 [H 53-1, N-[4 (3,5 dimethylphenyl)-5 (2,6 dimethyl-4 pyridyl)-1,3 thiazol-2 yl]-N′-phenylurea]
198 to 199 | Cc1cccc(-c2nc(NC(=O)Nc3ccccc3)sc2-c2ccnc(NC3CCCCC3)c2)c1 [H 53-2, N-[5 (2 cyclohexylamino-4-pyridyl)-4 (3 methylphenyl)-1,3 thiazol-2 yl]-N′-phenylurea]

melting point [°C] | SMILES
188 to 190 | Cc1cccc(-c2nc(NC(=O)Nc3ccccc3)sc2-c2ccnc(NC3CCCC3)c2)c1 [H 53-3, N-[5 (2 cyclopentylamino-4 pyridyl)-4 (3 methylphenyl)-1,3 thiazol-2 yl]-N′-phenylurea]
168 to 169 | Cc1cccc(-c2nc(NC(=O)Nc3ccccc3)sc2-c2ccnc(C)c2)c1 [H 53-4, N-[4 (3 methylphenyl)-5-(2 methyl-4 pyridyl)-1,3 thiazol-2 yl]-N′-phenylurea]
128 to 130 | Cc1cccc(-c2nc(-c3ccc([S+](C)[O-])cc3)sc2-c2ccnc(C)c2)c1 (stereo not drawn) [H 54, 4-(3-methylphenyl)-5-(2-methyl-4-pyridyl)-2-(4-methylsulfinylphenyl)-1,3-thiazole]
133 to 134 | Cc1cccc(-c2nc(-c3ccc([S+](C)[O-])cc3)sc2-c2cc(C)nc(C)c2)c1 (stereo not drawn) [H 55, 5 (2,6 dimethyl-4 pyridyl)-4 (3 methylphenyl)-2 (4-methylsulfinylphenyl)-1,3 thiazole]
151 to 153 | Cc1cc(C)cc(-c2nc(-c3ccc([S+](C)[O-])cc3)sc2-c2ccnc(C)c2)c1 (stereo not drawn) [H 56-1, 4 (3,5 dimethylphenyl)-5-(2 methyl-4 pyridyl)-2 (4 methylsulfinylphenyl)-1,3 thiazole]
151 to 154 | Cc1cc(C)cc(-c2nc(-c3ccc([S+](C)[O-])cc3)sc2-c2cc(C)nc(C)c2)c1 (stereo not drawn) [H 56-2, 4 (3,5 dimethylphenyl)-5-(2,6 dimethyl-4 pyridyl)-2 (4 methylsulfinylphenyl)-1,3-thiazole]
196 to 197 | Cc1cc(C)cc(-c2nc(-c3ccc(S(C)(=O)=O)cc3)sc2-c2ccnc(C)c2)c1 [H 58-1, 4 (3,5 dimethylphenyl)-5-(2 methyl-4 pyridyl)-2 (4 methylsulfonylphenyl)-1,3 thiazole]
182 to 184 | Cc1cccc(-c2nc(-c3ccc(S(C)(=O)=O)cc3)sc2-c2cc(C)nc(C)c2)c1 [H 58-2, 5 (2,6 dimethyl-4-pyridyl)-4 (3 methylphenyl)-2 (4 methylsulfonylphenyl)-1,3-thiazole]
217 to 220 | Cc1cc(C)cc(-c2nc(-c3ccc(S(C)(=O)=O)cc3)sc2-c2cc(C)nc(C)c2)c1 [H 58-3, 4 (3,5 dimethylphenyl)-5-(2,6 dimethyl-4 pyridyl)-2 (4 methylsulfonylphenyl)-1,3-thiazole]
195 to 199 | Cc1cccc(-c2nc(-c3ccc(S(C)(=O)=O)cc3)sc2-c2ccnc(F)c2)c1 [H 58-4, 5-(2-fluoro-4-pyridyl)-4-(3-methylphenyl)-2-(4-methylsulfonylphenyl)-1,3-thiazole]
190 to 192 | Cc1cc(-c2sc(-c3ccc(S(C)(=O)=O)cc3)nc2-c2ccc(F)cc2)ccn1 [H 58-5, 4 (4 fluorophenyl)-5 (2-methyl-4 pyridyl)-2 (4 methylsulfonylphenyl)-1,3 thiazole]
216 to 217 | CC(=O)Nc1cc(-c2sc(-c3ccc(S(C)(=O)=O)cc3)nc2-c2cccc(Cl)c2)ccn1 [H 58-6, N-[4-[4-(3-chlorophenyl)-2-(4-methylsulfonylphenyl)-1,3-thiazol-5-yl]-2-pyridyl]acetamide]
122 to 123 | CC(C)(C)C(=O)Nc1cc(-c2sc(-c3ccc(S(C)(=O)=O)cc3)nc2-c2cccc(Cl)c2)ccn1 [H 58-8, N-[4-[4-(3-chlorophenyl)-2-(4-methylsulfonylphenyl)-1,3-thiazol-5-yl]-2-pyridyl]pivalamide]
255 to 256 | Cc1cc(C)cc(-c2nc(-c3ccc(S(C)(=O)=O)cc3)sc2-c2cc[n+]([O-])c(C)c2)c1 [H 59, 4 [4 (3,5 dimethylphenyl)-2 (4 methylsulfonylphenyl)-1,3-thiazol-5 yl]-2 methylpyridine N-oxide]
156 to 158 | Cc1cccc(-c2nc(NC(=O)OCCCl)sc2-c2ccnc(C)c2)c1 [H 62, 2 chloroethyl [4 (3-methylphenyl)-5 (2 methyl-4 pyridyl)-1,3 thiazol-2-yl]carbamate]
194 to 195 | CONC(=O)Nc1nc(-c2cccc(C)c2)c(-c2ccnc(C)c2)s1 [H 63, N-methoxy-N′-[4 (3 methylphenyl)-5 (2 methyl-4 pyridyl)-1,3-thiazol-2 yl]urea]
154 to 155 | Cc1cccc(-c2nc(NC(=O)NOc3ccccc3)sc2-c2ccnc(C)c2)c1 [H 64, N-[4 (3 methylphenyl)-5 (2-methyl-4 pyridyl)-1,3 thiazol-2 yl]-N′-phenyloxyurea]
80 to 82 | Cc1cccc(C2=NCSC2(c2ccnc(C)c2)N2CCOC2=O)c1 (stereo not drawn) [H 65, 3 [4 (3 methylphenyl)-5 (2 methyl-4 pyridyl)-1,3 thiazol-5-yl]-oxazolidin-2 one]
200 to 201 | Cc1cccc(-c2nc(N3CCNC3=O)sc2-c2ccnc(C)c2)c1 [H 66, 1 [4 (3 methylphenyl)-5 (2-methyl-4 pyridyl)-1,3 thiazol-2 yl]imidazolidin-2 one]
